For assay [1], the system named is 786-O cells. The experiment in a line: mitosis live cell imaging (SiR-tubulin). It is filed as cell-based, human. The conditions noted are these: single drug alone. As to the method:
In order to test whether C2 treatment affects cell division, this process was monitored by live cell imaging. 786-O cells were treated with 0.1% DMSO in the cell culture medium (CTRL) or C2 and stained with the live cell dye SiR-tubulin (microtubule marker) to label the mitotic spindle, monitor mitotic progression and detect any cytokinesis failure. All experiments were performed in the presence of Valspodar (4 μM), a multi-drug pump inhibitor that prevented SiR-tubulin removal from the cell (this concentration of Valspodar had no effect on the efficacy of C2). Live cells were recorded for 24 hours at a temporal resolution of 3 minutes (FIG. 7A).
20 points were taken per condition.

A further assay relates to COLO-205 cells. The experiment in a line: cell metabolic activity assay (CellTitre-Glo), CRC line. The format is cell-based. The settings on record: COLO-205, CIN and high centrosome numbers. As to the method:
C2 and the individual drugs present in C2 were assayed in a cell metabolic activity assay (CellTitre-Glo) where the bioluminescence was detected, to the following cell panel: two MIN (microsatellite instability) cell lines (HCT-116 and DLD1), two CIN (chromosomal instability) cell lines (SW480 and SW620), COLO205 (CIN and high centrosome numbers), HT29 (CIN and replication stress induced centriole dis-engagement), CCD841 (non-malignant colon cell line; negative control) and 786-O (renal carcinoma cell line; positive control).

Assay [2] concerns 786-O cells. The experiment in a line: in vitro cell viability bioassay measuring cell metabolic activity (CellTiterGlo). The format is cell-based, human. The conditions noted are these: for IC20: ED20 (or lower, based on clinically attainable plasma concentrations), highest dose for combinatorial screening; for EC50: 786-0, dose that inhibited 50% of cell viability vs control, 72 h treatment, read-out: ED50 (the source's name). The protocol:
Seeding density was 2-10×10^3cells/well, depending on the cell line's growth characteristics such that the control cells approach confluency at the time of the assay readout. Subsequently, cell viability was assessed using the CellTiterGlo® luminescence assay (Promega, Madison, Wis., USA) and cell viability was reported as the luminescence signal in the treated wells normalized to the signal in the DMSO treated control wells. Dose-response curves and IC50 values were determined in Graphpad Prism® using a four-parameter non-linear fit of the log transformed dose data of each compound.
A general note: ATP-based viability assays read luminescence as a measure of living cells.

Each structure is given as a SMILES string.

In general, IC20 refers to the concentration at which the effect reaches the 20% level. Turning to `O=C(CCCCCCC(=O)Nc1ccc([C@H]2O[C@@H](CSc3nc(-c4ccccc4)c(-c4ccccc4)o3)C[C@@H](c3ccc(CO)cc3)O2)cc1)NO` [tubacin, N-(4-{(2R,4R,6S)-4-{[(4,5-diphenyl-1,3-oxazol-2-yl)sulfanyl]methyl}is [4-(hydroxymethyl)phenyl]-1,3-dioxan-2-yl}phenyl)-N′-hydroxyoctanediamide], the “effect on mitosis duration” value in the assay on 786-O cells [1] is listed as “small delay in mitosis”. In the assay on COLO-205 cells, the “killing / toxicity (cell metabolic activity)” value is listed as “partial toxicity”. Further, the IC20 in the assay with 786-O cells [2] (Homo sapiens, 786-0, 72 h) came to 2000 nM. Besides, the EC50 in the assay with 786-O cells [2] (Homo sapiens) worked out at 6000 nM.

Turning to `O=C(CCCCCCC(=O)Nc1ccccc1)NO` [SAHA], the IC20 in the assay with 786-O cells [2] was found to be 1000 nM.

For `CNC(=O)c1cc(Oc2ccc(NC(=O)Nc3ccc(Cl)c(C(F)(F)F)c3)cc2)ccn1` [sorafenib], the IC20 in the assay on 786-O cells [2] (Homo sapiens, 786-0, 72 h) worked out at 10 nM.

As for `C#Cc1cccc(Nc2ncnc3cc(OCCOC)c(OCCOC)cc23)c1` [erlotinib, N-(3-Ethynylphenyl)-6,7-bis(2-methoxyethoxy) quinazolin-4-amine], the “effect on mitosis duration” value in the assay with 786-O cells [1] is listed as “small delay in mitosis”. Moreover, the IC20 in the assay with 786-O cells [2] (Homo sapiens, 786-0, 72 h) is 2000 nM. The EC50 in the assay on 786-O cells [2] (Homo sapiens) stood at 6600 nM.

In the case of `Cc1[nH]c2ccccc2c1CCNCc1ccc(/C=C/C(=O)NO)cc1` [LBH-589], the IC20 in the assay on 786-O cells [2] (Homo sapiens, 786-0, 72 h) came out at 2 nM. For the same molecule, in the assay with 786-O cells [2] (Homo sapiens), the EC50 was 10 nM.

As to `Cc1cc(Nc2cc(N3CCN(C)CC3)nc(Sc3ccc(NC(=O)C4CC4)cc3)n2)[nH]n1` [VX-680], the 20% effect concentration (IC20) in the assay on 786-O cells [2] (Homo sapiens, 786-0, 72 h) was determined as 650 nM. Further, in the assay on 786-O cells [2] (Homo sapiens), the EC50 is 33000 nM.

Consider `CC(=O)Nc1ccc(C(=O)Nc2ccccc2N)cc1` [CI-994, 4-(Acetylamino)-N-(2-aminophenyl)benzamide], for which the IC20 in the assay on 786-O cells [2] (Homo sapiens, 786-0, 72 h) was found to be 1000 nM. Besides, the EC50 in the assay on 786-O cells [2] (Homo sapiens) was 11500 nM.

For `Cn1c(=O)n(-c2ccc(C(C)(C)C#N)cc2)c2c3cc(-c4cnc5ccccc5c4)ccc3ncc21` [BEZ-235], in the assay on 786-O cells [2] (Homo sapiens, 786-0, 72 h), the IC20 was 20 nM. For the same molecule, the EC50 with 786-O cells [2] (Homo sapiens) was determined as 90 nM.

Regarding `CNC(=O)c1ccccc1Sc1ccc2c(/C=C/c3ccccn3)n[nH]c2c1` [axitinib], the IC20 with 786-O cells [2] (Homo sapiens, 786-0, 72 h) came out at 200 nM.

On to `Cc1nc(Nc2ncc(C(=O)Nc3c(C)cccc3Cl)s2)cc(N2CCN(CCO)CC2)n1` [dasatinib, N-(2-chloro-6-methylphenyl)-2-[[6-[4-(2-hydroxyethyl)piperazin-1-yl]-2-methylpyrimidin-4-yl]amino]-1,3-thiazole-5-carboxamide], for which the IC20 in the assay on 786-O cells [2] (Homo sapiens, 786-0, 72 h) is 50 nM. Besides, in the assay on 786-O cells [2] (Homo sapiens), the EC50 amounted to 100 nM.

The values are drawn from patent US20220373535A1, “METHODS OF IDENTIFICATION OF SYNERGISTIC ANTI-CANCER MULTIDRUG COMBINATIONS AND USES THEREOF” (UNIVERSITE DE GENEVE, priority 2019, published 2022).
